Test results as given in patent US9588106B2, “Methods and compositions for measuring cell permeability” (The University of Chicago, priority 2012, dated 2017).

System: HPAEC monolayer
Assay: XPerT permeability visualization on biotinylated gelatin coated coverslips (FITC-avidin, VE-cadherin staining)
Type: cell-based, human
Settings: thrombin 0.2 or 0.3 U/ml 15 min; forskolin 2 μM 30 min; 10× objective; FIG. 4A
Procedure: Human pulmonary artery endothelial cells (HPAEC) were obtained from Lonza (Allendale, N.J.) and cultured in cell growth medium (EGM-2, Lonza) containing 10% fetal bovine serum (FBS). Cell cultures were maintained at 37° C. in a humidified 5% CO2 incubator and used for experiments at passages 5-8. In experiments with agonist stimulation, 10% FBS growth medium was replaced with 2% FBS growth medium for 2 hours prior to experiment. Measurements of transendothelial electrical resistance across a confluent endothelial cell monolayer were performed using the electrical cell-substrate impedance sensing system ECIS-1600 (Applied Biophysics, Troy, N.Y.). Transient transfections with cMyc-tagged RhoA-V14 or Rho kinase-CAT (6-553) were performed using PolyJet transfection reagent (SignaGen, Rockville, Md.) according to the manufacturer's protocol. In brief, HPAEC were seeded on 35 mm diameter cell culture dishes with biotinylated gelatin-treated coverslips at a density of 5×10^5 cells per dish. After 24 hours cells were transfected with 1 μg of plasmid DNA per dish (ratio: 1 μg of DNA per 3 μl of PolyJet). Permeability visualization experiments were performed 24 hours after transfection.
Permeability visualization experiments were performed on 18×18 mm square Rinzle plastic coverslips. The coverslips, placed in 35 mm culture dishes, were coated with biotinylated gelatin as described above. […]

thrombin
FITC fluorescence at cell-cell junction areas, low magnification images: dramatic increase in FITC fluorescence in the intercellular gaps
